Data as given in patent US20050049186A1, “Peptides mimicking the biological activity of steroid hormones and their uses” (priority 2000, published 2005).
Read-outs that look alike come from different tables or passages of the source. Peptide text beside a SMILES is read from it.

How the values were obtained:
ER α = target: T1, ER α (Homo sapiens, UniProt P03372); test: Receptor binding assay for estrogen receptor alpha; conditions: for recognition of / binding activity to estrogen receptor α: summary of Tables 3 to 5
T1 sequence (P03372 1-595): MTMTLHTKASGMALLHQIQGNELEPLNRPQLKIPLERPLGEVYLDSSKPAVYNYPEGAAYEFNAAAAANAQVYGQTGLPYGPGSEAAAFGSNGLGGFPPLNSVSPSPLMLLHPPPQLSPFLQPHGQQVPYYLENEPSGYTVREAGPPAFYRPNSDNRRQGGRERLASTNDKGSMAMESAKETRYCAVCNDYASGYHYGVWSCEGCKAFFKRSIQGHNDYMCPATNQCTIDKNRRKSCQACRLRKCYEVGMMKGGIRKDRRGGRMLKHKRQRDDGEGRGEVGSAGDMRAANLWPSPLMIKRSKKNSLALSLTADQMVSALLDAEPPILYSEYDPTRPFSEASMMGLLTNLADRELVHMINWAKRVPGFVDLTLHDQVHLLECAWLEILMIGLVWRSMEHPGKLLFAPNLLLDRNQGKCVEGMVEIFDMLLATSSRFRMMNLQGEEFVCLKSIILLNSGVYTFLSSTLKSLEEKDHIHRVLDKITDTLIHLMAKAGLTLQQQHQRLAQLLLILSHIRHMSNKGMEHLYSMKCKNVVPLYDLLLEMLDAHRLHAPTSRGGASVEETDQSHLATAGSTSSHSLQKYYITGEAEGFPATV

ER β = ER β (Homo sapiens, UniProt Q92731); test: Receptor binding assay for estrogen receptor beta; conditions: for IC50 / IC50 to ERβ: Table 5; for IC50: read-out: IC50 to ERβ; for recognition of / binding activity to estrogen receptor β: summary of Tables 3 to 5
[1] = target: anti-estradiol mAb clone 15; test: Competitive immunoassay: inhibition of binding of labeled E2 (estradiol ovalbumin europium conjugate) to anti-E2 clone 15; design: species or system mouse; conditions: for IC50: Table 5, estradiol ovalbumin europium conjugate; for inhibition of the binding of estradiol ovalbumin europium conjugate to anti-E2 mAb clone 15 relative to peptides 1 and 2: compared with the linear or cyclic peptides 1 and 2; for inhibition of binding of estradiol ovalbumin europium conjugate to anti-estradiol mAb clone 15: text summary of Table 4
Excerpt: […]. The linear peptide 1 is 15-amino acid long. We further explored the possibility whether smaller peptides derived from peptide 1 may have antibody binding activity and receptor binding activity. In order to find out the minimum amino acid sequence required in the linear peptide 1 for antibody and receptor binding, several peptides with varying length of from 4 to 14 amino acids long were synthesized, and were first evaluated in terms of binding to anti-estradiol (E2) mAb clone 15. The peptides showing similar or better antibody binding activity than the linear peptide 1 were further evaluated in terms of binding to ERα and β.

[2] = Table 5, read-out: IC50 to ER α

Chain of ER β (Q92731 whole entry, species assumed): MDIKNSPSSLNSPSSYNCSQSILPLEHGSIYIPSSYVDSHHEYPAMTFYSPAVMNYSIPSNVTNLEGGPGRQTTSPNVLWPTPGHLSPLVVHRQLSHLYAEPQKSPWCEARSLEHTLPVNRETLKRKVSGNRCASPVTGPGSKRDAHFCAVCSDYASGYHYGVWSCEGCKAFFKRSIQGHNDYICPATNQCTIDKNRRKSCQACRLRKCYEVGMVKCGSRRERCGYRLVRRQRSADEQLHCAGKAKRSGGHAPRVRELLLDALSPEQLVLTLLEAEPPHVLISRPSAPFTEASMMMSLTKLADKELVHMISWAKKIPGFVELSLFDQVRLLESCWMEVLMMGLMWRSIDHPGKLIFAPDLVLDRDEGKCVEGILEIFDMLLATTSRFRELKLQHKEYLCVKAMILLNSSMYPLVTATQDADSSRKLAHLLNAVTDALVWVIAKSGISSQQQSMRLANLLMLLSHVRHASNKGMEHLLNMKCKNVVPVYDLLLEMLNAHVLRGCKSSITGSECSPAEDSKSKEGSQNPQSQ

Compound | recognition of / binding activity to estrogen receptor α (ER α) | IC50 (ER β) [nM] | recognition of / binding activity to estrogen receptor β (ER β) | IC50 [1] [nM] | inhibition of the binding of estradiol ovalbumin europium conjugate to anti-E2 mAb clone 15 relative to peptides 1 and 2 [1] | IC50 (ER α; [2]) [nM] | inhibition of binding of estradiol ovalbumin europium conjugate to anti-estradiol mAb clone 15 [1] | IC50 to ER α (ER α; Table 5) | IC50 to ERβ (ER β) | IC50 (ER α; FIG. 2, read-out: IC50, binding to ER α) [nM]
NCCCC[C@H](N)C(=O)N1CCC[C@H]1C(=O)N[C@@H](Cc1c[nH]c2ccccc12)C(=O)N[C@@H](Cc1ccccc1)C(=O)N[C@@H](Cc1ccccc1)C(=O)N[C@@H](CCC(=O)O)C(=O)O [Peptide 21, KPWFFE] (H-KPWFFE-OH) | recognized | > 500000 | recognized | 45 | one and half order of magnitude better | – | – | – | – | –
C[C@H](NC(=O)[C@@H](N)CCCCN)C(=O)N[C@@H](Cc1c[nH]c2ccccc12)C(=O)N[C@@H](Cc1ccccc1)C(=O)N[C@@H](Cc1ccccc1)C(=O)N[C@@H](CCC(=O)O)C(=O)O [Peptide A-44, KAWFFE] (H-KAWFFE-OH) | recognized | 250000 | recognized | 40 | one and half order of magnitude better | 250000 | showed inhibition | – | – | –
CC[C@H](C)[C@H](N)C(=O)N[C@@H](CCCNC(=N)N)C(=O)N[C@@H](Cc1c[nH]c2ccccc12)C(=O)N[C@@H](Cc1ccccc1)C(=O)N[C@@H](Cc1ccccc1)C(=O)N[C@@H](CCC(=O)O)C(=O)O [Peptide B37, IRWFFE] (H-IRWFFE-OH) | – | 250000 | recognized only the ERβ | 20 | one and half order of magnitude better | – | – | None | – | –
N=C(N)NCCC[C@H](NC(=O)[C@@H](N)CCCCN)C(=O)N[C@@H](Cc1c[nH]c2ccccc12)C(=O)N[C@@H](Cc1ccccc1)C(=O)N[C@@H](Cc1ccccc1)C(=O)N[C@@H](CCC(=O)O)C(=O)O [Peptide 44, KRWFFE] (H-KRWFFE-OH) | recognized | 400000 | recognized | 35 | one and half order of magnitude better | 400000 | – | – | – | –
CC(C)C[C@H](N)C(=O)N[C@@H](CCCNC(=N)N)C(=O)N[C@@H](Cc1c[nH]c2ccccc12)C(=O)N[C@@H](Cc1ccccc1)C(=O)N[C@@H](Cc1ccccc1)C(=O)N[C@@H](CCC(=O)O)C(=O)O [Peptide B38, LRWFFE] (H-LRWFFE-OH; N-terminus and C-terminus assumed) | did not show any binding activity | – | did not show any binding activity | 40 | one and half order of magnitude better | – | – | None | None | –
CC(C)[C@H](N)C(=O)N1CCC[C@H]1C(=O)N[C@@H](Cc1c[nH]c2ccccc12)C(=O)N[C@@H](Cc1ccccc1)C(=O)N[C@@H](Cc1ccccc1)C(=O)N[C@@H](CCC(=O)O)C(=O)O [Peptide B33, VPWFFE] (H-VPWFFE-OH; N-terminus and C-terminus assumed) | did not show any binding activity | – | did not show any binding activity | 6 | one and half order of magnitude better | – | – | None | None | –
CC(C)C[C@@H]1NC(=O)[C@H](C)NC(=O)[C@@H]2CCCN2C(=O)[C@H](CC(C)C)NC(=O)[C@H](CCC(=O)O)NC(=O)[C@H](C)NC(=O)[C@@H](N)CSSC[C@@H](C(=O)O)NC(=O)[C@@H]2CCCN2C(=O)[C@@H]2CCCN2C(=O)[C@@H]2CCCN2C(=O)[C@@H]2CCCN2C(=O)[C@H](CCCCN)NC(=O)[C@H]([C@@H](C)O)NC(=O)[C@H](CCC(=O)O)NC(=O)[C@H](Cc2ccccc2)NC(=O)[C@H](Cc2ccccc2)NC(=O)[C@H](Cc2c[nH]c3ccccc23)NC(=O)[C@H](CCCNC(=N)N)NC(=O)[C@H](CCCCN)NC(=O)[C@H]([C@@H](C)O)NC(=O)[C@@H]2CCCN2C(=O)[C@H](CC(=O)O)NC1=O [Peptide 2] (HELM PEPTIDE1{C.A.E.L.P.A.L.D.P.T.K.R.W.F.F.E.T.K.P.P.P.P.C}$PEPTIDE1,PEPTIDE1,1:R3-23:R3$$$V2.0; N-terminus and C-terminus assumed) | – | – | – | – | – | – | – | – | none | 100000
C[C@H](N)C(=O)N[C@@H](CCCNC(=N)N)C(=O)N[C@@H](Cc1c[nH]c2ccccc12)C(=O)N[C@@H](Cc1ccccc1)C(=O)N[C@@H](Cc1ccccc1)C(=O)N[C@@H](CCC(=O)O)C(=O)O [Peptide A-43, ARWFFE] (H-ARWFFE-OH) | recognized only the estrogen receptor α | – | not β | 40 | one and half order of magnitude better | – | showed inhibition | – | None | –
CC(C)[C@H](N)C(=O)N[C@@H](CCCNC(=N)N)C(=O)N[C@@H](Cc1c[nH]c2ccccc12)C(=O)N[C@@H](Cc1ccccc1)C(=O)N[C@@H](Cc1ccccc1)C(=O)N[C@@H](CCC(=O)O)C(=O)O [Peptide 39, VRWFFE] (H-VRWFFE-OH) | – | < 100000 | – | – | – | < 100000 | – | – | – | –
CC(C)[C@H](N)C(=O)N[C@@H](CO)C(=O)N[C@@H](Cc1c[nH]c2ccccc12)C(=O)N[C@@H](Cc1ccccc1)C(=O)N[C@@H](Cc1ccccc1)C(=O)N[C@@H](CCC(=O)O)C(=O)O [Peptide B34, VSWFFE] (H-VSWFFE-OH) | recognized | 100000 | recognized | 6 | one and half order of magnitude better | 250000 | – | – | – | –
NCCCC[C@H](N)C(=O)N[C@@H](CO)C(=O)N[C@@H](Cc1c[nH]c2ccccc12)C(=O)N[C@@H](Cc1ccccc1)C(=O)N[C@@H](Cc1ccccc1)C(=O)N[C@@H](CCC(=O)O)C(=O)O [Peptide 19, KSWFFE] (H-KSWFFE-OH; N-terminus and C-terminus assumed) | did not show any binding activity | – | did not show any binding activity | 40 | one and half order of magnitude better | – | – | None | None | –
CC(C)[C@H](N)C(=O)N[C@@H](CCCNC(=N)N)C(=O)N[C@@H](Cc1c[nH]c2ccccc12)C(=O)N[C@@H](Cc1ccccc1)C(=O)N[C@@H](Cc1ccc(O)cc1)C(=O)N[C@@H](CCC(=O)O)C(=O)O [Peptide B35, VRWFYE] (H-VRWFYE-OH; N-terminus and C-terminus assumed) | did not show any binding activity | – | did not show any binding activity | 6 | one and half order of magnitude better | – | – | None | None | –
WFFE [Peptide 46] | did not show any inhibition | – | – | – | – | – | – | – | – | –
